Where “and” joins values, the source holds several entries; their conditions need not be identical. Identical values can stand only once.
T1: Solute carrier family 22 member 2 (Homo sapiens, UniProt O15244)
T1 sequence (O15244 whole entry): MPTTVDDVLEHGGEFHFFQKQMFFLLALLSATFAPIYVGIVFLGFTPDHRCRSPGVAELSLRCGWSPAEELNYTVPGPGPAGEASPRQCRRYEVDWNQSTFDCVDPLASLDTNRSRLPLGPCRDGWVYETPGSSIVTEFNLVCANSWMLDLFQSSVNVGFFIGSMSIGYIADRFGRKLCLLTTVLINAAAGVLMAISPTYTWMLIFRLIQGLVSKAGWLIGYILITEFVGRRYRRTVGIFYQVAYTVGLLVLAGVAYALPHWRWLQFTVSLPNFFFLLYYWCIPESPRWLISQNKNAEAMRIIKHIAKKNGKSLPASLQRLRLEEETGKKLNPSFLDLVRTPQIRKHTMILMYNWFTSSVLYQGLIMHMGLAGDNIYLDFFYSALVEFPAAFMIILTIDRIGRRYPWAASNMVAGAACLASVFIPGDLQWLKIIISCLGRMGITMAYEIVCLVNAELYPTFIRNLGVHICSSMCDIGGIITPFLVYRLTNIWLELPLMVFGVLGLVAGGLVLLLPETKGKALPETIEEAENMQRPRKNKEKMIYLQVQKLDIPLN

T2: Solute carrier family 22 member 1 (Homo sapiens, UniProt O15245)
T2 sequence (O15245 whole entry): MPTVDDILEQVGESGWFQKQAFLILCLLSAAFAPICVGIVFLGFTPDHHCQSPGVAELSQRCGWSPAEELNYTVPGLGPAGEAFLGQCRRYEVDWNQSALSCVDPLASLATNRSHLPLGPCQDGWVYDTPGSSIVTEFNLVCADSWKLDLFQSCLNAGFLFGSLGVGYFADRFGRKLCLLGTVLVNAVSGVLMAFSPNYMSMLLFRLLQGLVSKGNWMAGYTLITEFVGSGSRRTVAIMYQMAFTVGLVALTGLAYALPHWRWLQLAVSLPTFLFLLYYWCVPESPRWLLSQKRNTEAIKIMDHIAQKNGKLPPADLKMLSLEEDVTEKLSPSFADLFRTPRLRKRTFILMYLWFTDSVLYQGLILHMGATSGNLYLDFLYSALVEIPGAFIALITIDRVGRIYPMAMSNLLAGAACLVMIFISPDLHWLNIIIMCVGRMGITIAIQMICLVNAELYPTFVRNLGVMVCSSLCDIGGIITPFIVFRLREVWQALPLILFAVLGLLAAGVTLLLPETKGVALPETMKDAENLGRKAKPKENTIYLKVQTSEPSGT


Experiments:
[1] = target: T1, Solute carrier family 22 member 2; assay: TP_TRANSPORTER: inhibition of TEA uptake in Xenopus laevis oocytes; format: functional, cell-based, Oocyte
[2] = target: T2, Solute carrier family 22 member 1; assay: (§1) TP_TRANSPORTER: uptake in Xenopus laevis oocytes; format: functional, cell-based; conditions: oocyte
[3] = substrate: CC[N+](CC)(CC)CC; assay: cells, lysate or membranes named
[4] = substrate: C[N+](C)(C)CCO; assay: cells, lysate or membranes named
[5] = substrate: CNC(=O)c1cccnc1; assay: as §1; format: functional, cell-based, Oocyte
[6] = substrate: C=C[C@H]1C[N@@]2CC[C@H]1C[C@H]2[C@H](O)c1ccnc2ccc(OC)cc12; assay: TP_TRANSPORTER: uptake (electrogenesis) in Xenopus laevis oocytes; format: functional, cell-based, Oocyte

| Molecule | Ki [1] [µM] | Activity [2] | also measured |
| --- | --- | --- | --- |
| CCN1/C(=C/c2ccc3ccccc3[n+]2CC)C=Cc2ccccc21 | 0.1 | – | – |
| C[n+]1ccc(-c2ccccc2)cc1 | 2.4 | substrate [not saturable] | – |
| CC[n+]1c(CC2C=C(C)N=C(c3ccccc3)N2C)ccc2ccccc21 (centres undefined) [Cyanine-863] | 0.21 | – | – |
| CC(C)C(c1ccccc1)C(O)CC[N+]1(C)CCCCC1 (centres undefined) [MEPIPERPHENIDOL BROMIDE] | 4.8 | – | – |
| COc1cc(C(O)CNC(C)C)ccc1O (centres undefined) [METIPRENALINE] | 570 | – | – |
| CNC(=O)c1cccnc1 [NICOTINYL METHYLAMIDE] | 266 | substrate [not saturable] | – |
| CCCCC[N+](CCCCC)(CCCCC)CCCCC [TETRAPENTYLAMMONIUM] | 1.5 | – | – |
| CC[N+](CC)(CC)CC [TETRYLAMMONIUM] | – | substrate [not saturable] | – |
| Solute carrier family 22 member 2 (Homo sapiens) (protein) MPTTVDDVLEHGGEFHFFQKQMFFLLALLSATFAPIYVGIVFLGFTPDHRCRSPGVAELSLRCGWSPAEELNYTVPGPGPAGEASPRQCRRYEVDWNQSTFDCVDPLASLDTNRSRLPLGPCRDGWVYETPGSSIVTEFNLVCANSWMLDLFQSSVNVGFFIGSMSIGYIADRFGRKLCLLTTVLINAAAGVLMAISPTYTWMLIFRLIQGLVSKAGWLIGYILITEFVGRRYRRTVGIFYQVAYTVGLLVLAGVAYALPHWRWLQFTVSLPNFFFLLYYWCIPESPRWLISQNKNAEAMRIIKHIAKKNGKSLPASLQRLRLEEETGKKLNPSFLDLVRTPQIRKHTMILMYNWFTSSVLYQGLIMHMGLAGDNIYLDFFYSALVEFPAAFMIILTIDRIGRRYPWAASNMVAGAACLASVFIPGDLQWLKIIISCLGRMGITMAYEIVCLVNAELYPTFIRNLGVHICSSMCDIGGIITPFLVYRLTNIWLELPLMVFGVLGLVAGGLVLLLPETKGKALPETIEEAENMQRPRKNKEKMIYLQVQKLDIPLN | – | – | Km [3]: 31 µM and 76 µM; Km [4]: 190 µM and 210 µM; Km [5]: 300 µM; Km [6]: 2.6 µM |

Source: ChEMBL document CHEMBL2073863, “Cloning and characterization of two human polyspecific organic cation transporters” (DNA Cell Biol, 1997)
